Results reported in US20160002247A1, “8-SUBSTITUTED IMIDAZOPYRIMIDINONE DERIVATIVE HAVING AUTOTAXIN INHIBITORY ACTIVITY” (THE UNIVERSITY OF TOKYO, priority 2013, published 2016).

biological target: T1, Human autotaxin enzyme (Homo sapiens, UniProt Q13822); assay: Evaluation of autotaxin inhibitor, Method C (Test Example 3): 18:0 Lyso PC, choline assay, Resorufin fluorescence; format: biochemical; conditions: Assay Method C (Test Example 3), human autotaxin, 18:0 Lyso PC substrate; read-out: Inhibitory Activity (autotaxin enzyme inhibitory activity, IC50 class)
T1 construct: purchased R&D System
How it was run: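 Human autotaxin in Tris-HCl pH 7.5, 150 mM NaCl, 5 mM MgCl2, 0.05% Triton X-100 reacted 2 h at room temperature with 18:0 Lyso PC (200 μM solution added). Released choline detected via choline oxidase/peroxidase/Amplex-type reagent, resorufin fluorescence (ex 531/em 598 nm); inhibition vs no-compound and no-enzyme controls, concentration-response curve.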

Compound | IC50
CCCCCn1c(-c2ccc(C(=O)NC)cc2)cc(=O)n2cc(-c3ccc(Cl)cc3)nc12 [Compound 495] | 10 to 100 nM
CCCCCn1c(-c2cccc(C(=O)NCCN(C)C)c2)cc(=O)n2cc(-c3ccc(Cl)cc3)nc12 [Compound 439] | 10 to 100 nM
CCCCCn1c(N2CCC[C@H]2C(=O)N2CCC[C@H]2C(=O)O)cc(=O)n2cc(-c3ccc(Cl)cc3)nc12 [Compound 337] | 10 to 100 nM
CCCCCn1c(-c2ccc(CC)cc2)cc(=O)n2cc(-c3ccc(Cl)cc3)nc12 [Compound 435] | 100 to 1000 nM
CCCCCn1c(N2CCC(C(=O)N3CCCC3=O)CC2)cc(=O)n2cc(-c3ccc(Cl)cc3)nc12 [Compound 299] | 10 to 100 nM
CCCCCn1c(-c2ccc(CCCC)cc2)cc(=O)n2cc(-c3ccc(Cl)cc3)nc12 [Compound 442] | > 1000 nM
CCCCCn1c(-c2cncc(OC)c2)cc(=O)n2cc(-c3ccc(Cl)cc3)nc12 [Compound 461] | 10 to 100 nM
CCCCCn1c(-c2ccc(C#N)nc2)cc(=O)n2cc(-c3ccc(Cl)cc3)nc12 [Compound 462] | 10 to 100 nM
CCCCCn1c(NCc2ccc(C(=O)O)cc2)cc(=O)n2cc(-c3ccc(Cl)cc3)nc12 [Compound 192] | 10 to 100 nM
CCCCCn1c(N2CCC[C@H]2C(=O)N(C)CCCO)cc(=O)n2cc(-c3ccc(Cl)cc3)nc12 [Compound 346] | 10 to 100 nM
N#CCCCCn1c(N2CCC(C(=O)O)CC2)cc(=O)n2cc(-c3ccc(Cl)cc3)nc12 [Compound 282] | 10 to 100 nM
CCCCCn1c(N2CCC3(CNC3)C2)cc(=O)n2cc(-c3ccc(Cl)cc3)nc12 [Compound 330] | 100 to 1000 nM
CCCCCn1c(-c2ccc(C(=O)NCCS(=O)(=O)N3CCOCC3)cc2)cc(=O)n2cc(-c3ccc(Cl)cc3)nc12 [Compound 501] | 10 to 100 nM
CCCCCn1c(N2CCC[C@H]2CO)cc(=O)n2cc(-c3ccc(Cl)cc3)nc12 [Compound 304] | 100 to 1000 nM
CCCCCn1c(N2CCC[C@H]2C(=O)NCCC(=O)N2CCOCC2)cc(=O)n2cc(-c3ccc(Cl)cc3)nc12 [Compound 343] | 10 to 100 nM
CCCCCn1c(-c2ccc(N3C[C@@H](CNC(C)=O)OC3=O)cc2F)cc(=O)n2cc(-c3ccc(Cl)cc3)nc12 [Compound 449] | 10 to 100 nM
CCCCCn1c(N2CCC[C@H]2C(=O)N(C)CC(=O)O)cc(=O)n2cc(-c3ccc(Cl)cc3)nc12 [Compound 353] | < 10 nM
CCCCCn1c(N2CCC(N3CC(C(=O)OC(C)(C)C)C3)C2)cc(=O)n2cc(-c3ccc(Cl)cc3)nc12 (centres unmarked) [Compound 324] | 100 to 1000 nM
CCCCCn1c(-c2cnn(CCN3CCOCC3)c2)cc(=O)n2cc(-c3ccc(Cl)cc3)nc12 [Compound 425] | 10 to 100 nM
CCCCCn1c(-c2cnc(N)nc2)cc(=O)n2cc(-c3ccc(Cl)cc3)nc12 [Compound 459] | 10 to 100 nM
CCCCCn1c(N2CCC(CCc3ccccc3)C2)cc(=O)n2cc(-c3ccc(Cl)cc3)nc12 (centres unmarked) [Compound 322] | > 1000 nM
CCCCCn1c(-c2ccc(C(=O)NC[C@H](O)CO)cc2)cc(=O)n2cc(-c3ccc(Cl)cc3)nc12 [Compound 486] | < 10 nM
CCCCCn1c(-c2ccccc2F)cc(=O)n2cc(-c3ccc(Cl)cc3)nc12 [Compound 443] | 100 to 1000 nM
CCCCCn1c(-c2cccc(F)c2)cc(=O)n2cc(-c3ccc(Cl)cc3)nc12 [Compound 444] | 100 to 1000 nM
CCCCCn1c(N2CCC(C3CNC3)C2)cc(=O)n2cc(-c3ccc(Cl)cc3)nc12 (centres unmarked) [Compound 332] | 100 to 1000 nM
CCCCCn1c(-c2ccc3[nH]c(=O)[nH]c3c2)cc(=O)n2cc(-c3ccc(Cl)cc3)nc12 [Compound 448] | 10 to 100 nM
CCCCCn1c(N2CCC[C@H]2C(=O)NCCC(=O)N(C)C)cc(=O)n2cc(-c3ccc(Cl)cc3)nc12 [Compound 344] | 100 to 1000 nM
CCCCCn1c(-c2ccc(OCCO)c(S(N)(=O)=O)c2)cc(=O)n2cc(-c3ccc(Cl)cc3)nc12 [Compound 451] | 10 to 100 nM
CCCCCn1c(-c2ccc(S(=O)(=O)NCCO)cc2)cc(=O)n2cc(-c3ccc(Cl)cc3)nc12 [Compound 412] | 10 to 100 nM
CCCCCn1c(-c2cccc(N3CCOCC3)c2)cc(=O)n2cc(-c3ccc(Cl)cc3)nc12 [Compound 445] | 100 to 1000 nM

Results, then the compound that gave them:

IC50 | Compound
> 1000 nM | CCCCCn1c(N2C[C@H](O)C[C@H]2C(=O)O)cc(=O)n2cc(-c3ccc(Cl)cc3)nc12 [Compound 589]
10 to 100 nM | CCCCCn1c(N2CCN(C(=O)OC(C)(C)C)C[C@@H]2C(=O)NCCC(=O)O)cc(=O)n2cc(-c3ccc(Cl)cc3)nc12 [Compound 619]
> 1000 nM | CCCCCn1c(N2CCC[C@@]2(C)C(=O)NCC(=O)O)cc(=O)n2cc(-c3ccc(Cl)cc3)nc12 [Compound 635]
10 to 100 nM | CCn1c(N2C[C@H](O)C[C@H]2C(=O)N[C@H](C(=O)O)C(C)(C)C)cc(=O)n2cc(-c3ccc(Cl)cc3)nc12 [Compound 764]
10 to 100 nM | CCCCCn1c(N2CCC[C@H]2C(=O)NC(CO)C(=O)O)cc(=O)n2cc(-c3ccc(Cl)cc3)nc12 (some centres unmarked) [Compound 672]
< 10 nM | CCCCCn1c(-c2cnc(CNC(=O)[C@H](O)CO)nc2)cc(=O)n2cc(-c3ccc(Cl)cc3)nc12 [Compound 531]
100 to 1000 nM | CCCCCn1c(N2CCC[C@@H]2CC(=O)NCC(=O)O)cc(=O)n2cc(-c3ccc(Cl)cc3)nc12 [Compound 634]
< 10 nM | CCCCCn1c(N2C[C@@H](O)C[C@H]2C(=O)N[C@@H](Cc2ccccc2)C(=O)O)cc(=O)n2cc(-c3ccc(Cl)cc3)nc12 [Compound 775]
100 to 1000 nM | CCCCCn1c(OC2CCN(CCN3CCOCC3)CC2)cc(=O)n2cc(-c3ccc(Cl)cc3)nc12 [Compound 542]
< 10 nM | CCCCCn1c(N2CCC[C@H](C(=O)O)C2)cc(=O)n2cc(-c3ccc(Cl)cc3)nc12 [Compound 600]
< 10 nM | CCCCCn1c(N2CCC[C@H]2C(=O)N[C@@H](CCCC)C(=O)O)cc(=O)n2cc(-c3ccc(Cl)cc3)nc12 [Compound 728]
100 to 1000 nM | Cn1c(N2C[C@H](O)C[C@H]2C(=O)N[C@@H](Cc2ccccc2)C(=O)O)cc(=O)n2cc(-c3ccc(Cl)cc3)nc12 [Compound 772]
< 10 nM | O=C(O)[C@H](Cc1ccccc1)NC(=O)[C@@H]1C[C@@H](O)CN1c1cc(=O)n2cc(-c3ccc(Cl)cc3)nc2n1Cc1ccccc1 [Compound 749]
10 to 100 nM | CCCCCn1c(N2CCC[C@@H](C(=O)NCC(=O)O)C2)cc(=O)n2cc(-c3ccc(Cl)cc3)nc12 [Compound 636]
10 to 100 nM | CCCCCn1c(N2CCC[C@H]2CC(=O)O)cc(=O)n2cc(-c3ccc(Cl)cc3)nc12 [Compound 599]
10 to 100 nM | CCCCCn1c(N(C)CC(=O)NCC(=O)O)cc(=O)n2cc(-c3ccc(Cl)cc3)nc12 [Compound 609]
< 10 nM | CCCCCn1c(N2CCC[C@H]2C(=O)N[C@H](CC)C(=O)O)cc(=O)n2cc(-c3ccc(Cl)cc3)nc12 [Compound 739]
10 to 100 nM | CCCCCn1c(N2CCC[C@H]2C(=O)N(C)CC(=O)N(C)C)cc(=O)n2cc(-c3ccc(Cl)cc3)nc12 [Compound 703]
10 to 100 nM | CCCCCn1c(-c2ccc(C(=O)NCCNC3CCS(=O)(=O)C3)cc2)cc(=O)n2cc(-c3ccc(Cl)cc3)nc12 (centres unmarked) [Compound 524]
10 to 100 nM | CCCCCn1c(N2CCC3(COC3)C2)cc(=O)n2cc(-c3ccc(Cl)cc3)nc12 [Compound 715]
10 to 100 nM | CCCCCn1c(N[C@@H]2CCC[C@H]2C(=O)O)cc(=O)n2cc(-c3ccc(Cl)cc3)nc12 [Compound 613]
10 to 100 nM | CCCCCn1c(-c2ccc(C(=O)NC[C@@H](O)CO)cc2)cc(=O)n2cc(-c3ccc(Cl)cc3)nc12 [Compound 504]
< 10 nM | CCCCCn1c(N2CCCC[C@H]2C(=O)NCCC(=O)O)cc(=O)n2cc(-c3ccc(Cl)cc3)nc12 [Compound 621]
10 to 100 nM | CCCCCn1c(N2C[C@@H](O)C[C@H]2C(=O)NC(C)(C)CC(=O)OCC)cc(=O)n2cc(-c3ccc(Cl)cc3)nc12 [Compound 598]
< 10 nM | CCCCCn1c(-c2ccc(C(=O)NCCCn3ccnc3)cc2)cc(=O)n2cc(-c3ccc(Cl)cc3)nc12 [Compound 505]
10 to 100 nM | CCCCCn1c(NCCCCC(=O)O)cc(=O)n2cc(-c3ccc(Cl)cc3)nc12 [Compound 611]
10 to 100 nM | CCCCCn1c(N2CCN(C(=O)OC(C)(C)C)C[C@H]2C(=O)NCC(=O)O)cc(=O)n2cc(-c3ccc(Cl)cc3)nc12 [Compound 632]

same assay, conditions: Assay Method C, human autotaxin, 18:0 Lyso PC substrate; read-out: Inhibitory Activity

IC50 | Compound
> 1000 nM | O=C(Cc1cn(CCCC(F)(F)F)c2nc(-c3ccc(Cl)cc3)cn2c1=O)NCCO [Compound 843]
100 to 1000 nM | Cn1c(N2CCC[C@H]2C(=O)NC(C)(C)C(=O)O)cc(=O)n2cc(-c3ccc(Cl)cc3)nc12 [Compound 780]
100 to 1000 nM | Cc1noc(CNC(=O)Cc2cn(CCCC(F)(F)F)c3nc(-c4ccc(Cl)cc4)cn3c2=O)n1 [Compound 863]
100 to 1000 nM | CCCCCn1c(N2CCC[C@H]2C(=O)Nc2ccc(-c3nn[nH]n3)cc2)cc(=O)n2cc(-c3ccc(Cl)cc3)nc12 [Compound 784]
> 1000 nM | N#CC(NC(=O)Cc1cn(CCCC(F)(F)F)c2nc(-c3ccc(Cl)cc3)cn2c1=O)C(N)=O (centres unmarked) [Compound 859]
> 1000 nM | CS(=O)(=O)CCNC(=O)Cc1cn(CCCC(F)(F)F)c2nc(-c3ccc(Cl)cc3)cn2c1=O [Compound 849]
10 to 100 nM | CCCCCn1cc(Cc2cccc(C(=O)O)c2)c(=O)n2cc(-c3ccc(Cl)cc3)nc12 [Compound 820]
> 1000 nM | CC(=O)CNC(=O)Cc1cn(CCCC(F)(F)F)c2nc(-c3ccc(Cl)cc3)cn2c1=O [Compound 856]
10 to 100 nM | CCCCCn1c(N2CCC[C@H]2C(=O)NC(C)C(O)C(F)(F)F)cc(=O)n2cc(-c3ccc(Cl)cc3)nc12 (some centres unmarked) [Compound 800]
100 to 1000 nM | CNC(=O)Cc1cn(CCCC(F)(F)F)c2nc(-c3ccc(Cl)cc3)cn2c1=O [Compound 851]

same assay, conditions: Assay Method: Method C (Test Example 3); read-out: Inhibitory Activity (Enzyme Inhibitory Activity, IC50)

IC50 | Compound
100 to 1000 nM | Cc1cc(=O)n2cc(-c3ccc(Cl)cc3)nc2n1CCCC(C)F (centres unmarked) [Compound 49]
